This is an account of results in patent publication US20150141340A1, “METHOD OF TREATING AND PREVENTING OCULAR ANGIOGENESIS” (Yale University, priority 2012, published 2015).

Assay [1] deals with ischemia triggered neovascularization. The experiment in a line: Retinopathy of prematurity model (ROP). The note with it: administration 2 days after switching from hyperoxia to room air; vs AP injected eyes. The assay is classed as in vivo, mouse. As to the method:
Next, cavtratin was tested in an additional model of ocular angiogenesis, retinopathy of prematurity model (ROP). Exposure to hyperoxia during early retinal development leads to the arrest or retardation of normal retinal vascular development. When the animals are returned to the normoxic environment, they are under a relative hypoxic situation where the retina now lacks its normal vasculature that is required to adequately support the neural tissue in normoxic conditions. This ischemic situation results in unregulated, abnormal neovascularization. The neovascular response is very consistent, reproducible and quantifiable, and it has become integral model for studying disease mechanisms and potential treatments for ischemic retinopathy. The mouse ROP model has become the most common model for studying pathologic angiogenesis and has been extended to the general study of ischemic retinopathies and related anti-angiogenic treatments. […] Cavtratin induced attenuation of ischemia triggered neovascularization is shown in FIG. 8, where the left panels are representative of two AP injected eyes and right panels are from cavtratin injections.

Assay [2] relates to choroidal neovascularization (CNV). The assay can be described thus: Laser-induced choroidal neovascularization (CNV) model, isolectin b4 labeling. The assay is classed as in vivo, mice. An excerpt:
Experiments were designed to examine whether treatment with cavtratin is useful in disease models of excessive ocular angiogenesis. To induce choroidal neovascularization (CNV), a model for retinal angiogenesis in mice, three 532 nm diode laser spots were applied to each fundus of the eye using a coverslip as a contact lens. The lesions were placed between the retinal vessels 2-3 disc diameters from the optic nerve. Formation of a bubble indicates rupture of the Bruch's membrane, a critical factor in driving CNV. Cavtratin was dissolved into acetic acid and diluted into saline. […] After treatment and injury, CNV was visualized by immunofluorescent labeling with isolectin b4, a marker for angiogenic blood vessels. CNV area was quantified as isolectin positive vessels per area measured.
Since mechanistically cavtratin reduces vascular permeability, vascular leakage was examined after CNV damage.
Further, it was examined whether the effects of cavtratin treatment synergizes with anti-VEGF. Mice were injected with either cavtratin (0.05 nmol) one day prior to laser damage, anti-VEGF (5 μg) 2 days after damage, or were treated with both cavtratin and anti-VEGF.

As for “cavtratin: fusion peptide comprising an antennapedia homeodomain internalization sequence fused to a caveolin-1 scaffolding domain; SEQ ID NO: 13 (RQIKIWFQNRRMKWKKDGIWKASFTTFTVTKYWFYR; Antennapedia-caveolin-1 scaffolding domain fusion peptide)”, in assay [1], the ischemia triggered neovascularization entry is on record as “attenuation of extensive, ischemia triggered neovascualization”. Besides, in assay [2] (0.5 nmol intraocular (1 microliter) prior to laser damage and again 2 days after, sacrificed after 4 additional days, vs AP control, N=17-18 eyes, P<0.05), the “CNV area (isolectin positive vessels per area measured)” value is “reduced CNV”. The “CNV, dose dependence” value in assay [2] (anti-VEGF administration as comparator (FIG. 3, FIG. 4), reduced to a level comparable to anti-VEGF) was “dose-dependently reduces CNV”.
